≈ marks a conversion by molar mass, not a printed value.
How the values were obtained:
[1] = system: Staphylococcus epidermidis; test: Antibacterial activity against methicillin-resistant Staphylococcus epidermidis; format: functional
Staphylococcus aureus [2] = test: Antibacterial activity against methicillin-resistant Staphylococcus aureus; format: functional
Staphylococcus aureus [3] = test: Potentiation of oxacillin-induced antibacterial activity against methicillin-resistant Staphylococcus aureus ATCC BAA-44 assessed as reduction in oxacillin MIC preincubated for 30 mins followed by oxacillin addition and measured after 16 hrs by broth microdilution method; format: functional; conditions: time 16.5 hrs
Staphylococcus aureus [4] = test: Antibiofilm activity against methicillin-resistant Staphylococcus aureus ATCC BAA-44 incubated for 24 hrs by crystal violet-staining based assay; format: functional, organism-based; conditions: ATCC BAA-44, 24 h
Staphylococcus aureus [5] = test: Antibiofilm activity against methicillin-resistant Staphylococcus aureus ATCC BAA-44 assessed as disruption of preformed biofilms incubated for 24 hrs by CV-staining based assay; format: functional, organism-based; conditions: ATCC BAA-44, 24 h
Staphylococcus aureus [6] = test: Antibacterial activity against methicillin-resistant Staphylococcus aureus ATCC 33591 measured after 18 hrs by CLSI-based broth microdilution method; format: functional
Staphylococcus aureus [7] = test: Antibacterial activity against Staphylococcus aureus DSM 20231 incubated for 16 to 18 hrs by CLSI based assay; format: functional; conditions: time 16-18 hrs
Staphylococcus aureus [8] = test: Antibacterial activity against methicillin-resistant Staphylococcus aureus ATCC 43300 incubated for 16 to 18 hrs by CLSI based assay; format: functional; conditions: time 16-18 hrs
Staphylococcus aureus [9] = test: Resistance index, ratio of MIC for antibacterial activity against Staphylococcus aureus ATCC 43300 incubated for 16 to 18 hrs by CLSI based assay to MIC for antibacterial activity against Staphylococcus aureus DSM 20231 incubated for 16 to 18 hrs by CLSI based assay; format: functional; conditions: time 16-18 hrs
Staphylococcus aureus [10] = test: microbe, parasite or virus in culture; conditions: 725
Staphylococcus aureus [11] = test: microbe, parasite or virus in culture; conditions: 936

CC[C@@H](C(=O)[C@@H](C)[C@@H](O)[C@H](C)[C@@H]1O[C@@H]([C@@H](CC)C(=O)NCc2cn([C@H]3C[C@H](n4cc(F)c(=O)[nH]c4=O)O[C@@H]3CO)nn2)CC[C@@H]1C)[C@H]1O[C@]2(C=C[C@@H](O)[C@]3(CC[C@@](C)([C@H]4CC[C@](O)(CC)[C@H](C)O4)O3)O2)[C@H](C)C[C@@H]1C
MIC [1]: 32 µg/mL (≈ 30.2 µM) | MIC (Staphylococcus aureus [2]): 32 µg/mL (≈ 30.2 µM)

CCCCCCc1ccc(C(=O)NCCn2cc(CCCCCc3c[nH]c(N)n3)nn2)cc1
fold change (FC) (Staphylococcus aureus [3]): 64 | IC50 (Staphylococcus aureus [4]): 700 nM | EC50 (Staphylococcus aureus [5]): 900 nM

CC(=O)NC[C@H]1CN(c2ccc(N3CCN(C(=O)c4cn(C[C@H]5O[C@@H](n6cc(C)c(=O)[nH]c6=O)[C@H](O)[C@@H]5O)nn4)CC3)c(F)c2)C(=O)O1
MIC (Staphylococcus aureus [6]): 64 µg/mL (≈ 95.3 µM)

N=C(N)NCCC[C@H](NC(=O)[C@H](Cc1c[nH]c2ccccc12)NC(=O)[C@@H](N)CCCNC(=N)N)C(=O)N[C@@H](Cc1c[nH]c2ccccc12)C(=O)N[C@@H](CCCCn1cc(COc2cc(OCc3cn(CCCC[C@H](NC(=O)[C@H](Cc4c[nH]c5ccccc45)NC(=O)[C@H](CCCNC(=N)N)NC(=O)[C@H](Cc4c[nH]c5ccccc45)NC(=O)[C@@H](N)CCCNC(=N)N)C(N)=O)nn3)cc(OCc3cn(CCCC[C@H](NC(=O)[C@H](Cc4c[nH]c5ccccc45)NC(=O)[C@H](CCCNC(=N)N)NC(=O)[C@H](Cc4c[nH]c5ccccc45)NC(=O)[C@@H](N)CCCNC(=N)N)C(N)=O)nn3)c2)nn1)C(N)=O
MIC (Staphylococcus aureus [7]): 5.4 µM (≈ 15.2 µg/mL) | MIC (Staphylococcus aureus [8]): 2.7 µM (≈ 7.58 µg/mL) | Ratio (Staphylococcus aureus [9]): 0.5

Cc1nnc(SCC2=C(C(=O)O)N3C(=O)[C@@H](NC(=O)Cn4cnnn4)[C@H]3SC2)s1 [CEFAZOLIN SODIUM]
MIC (Staphylococcus aureus [10]): 32 µM | MIC (Staphylococcus aureus [11]): 8 µM

— ChEMBL document CHEMBL4706534, “1,2,3-Triazole-containing hybrids with potential antibacterial activity against methicillin-resistant Staphylococcus aureus (MRSA)” (Eur J Med Chem, 2020)
